Results as given in PMC8187944, “Discovery of Potent EGFR Inhibitors With 6-Arylureido-4-anilinoquinazoline Derivatives” (Frontiers in Pharmacology, 2021).

Columns and labels:
A549 cells = experiment: Anti-proliferative assay, standard CCK-8 method; type: cell-based, human; conditions: Homo sapiens, mean ± SD of at least three independent experiments, read-out: Proliferative inhibition (IC50, μM) A549
From the text: (§1) All reagents and solvents met the criteria of analytical reagents before use. All cancer cell lines (A549, human non-small-cell lung cell line; HT-29, human colonic adenocarcinoma cell line; MCF-7, human breast cancer cell line) were purchased from Stem Cell Bank, Chinese Academy of Sciences. […] ADP-Glo™ kinase assay kits were provided by Promega (Beijing) Biotech Co., Ltd. (Beijing, China). All kinase subtypes were supplied by SignalChem (BC, Canada).
(§2) The designed 4-anilinoquinazoline derivatives were evaluated for their antitumor bioactivities in vitro against three human tumor cell lines (A549, HT-29, and MCF-7) using the standard CCK-8 method. The CCK-8 method is based on WST-8 dye, 2-(2-methoxy-4-nitrophenyl)-3-(4-nitrophenyl)-5-(2,4-disulfophenyl)-2H-tetrazolium. WST-8 can be bio-reduced by dehydrogenases in mitochondria into orange water-soluble formazan products. Briefly, selected cancer cells in the logarithmic growth phase (1 × 10^4) were inoculated in 96-well plates and further cultured in the incubator for 24 h. First, the target compounds were diluted to different concentrations with culture medium with each dilution gradually diluted from the highest concentration solution. Second, the original culture medium was removed after the cells were completely adherent to the wall, and the compounds at various concentrations prepared above were added. In this experiment, a control group and a blank group were set: the former was treated with 0.1% DMSO solution, and the latter was treated with only the culture medium. […] A microplate reader was adopted to record the absorbance at 450 nm, and in this assay, gefitinib, erlotinib, and sorafenib were used as the reference drugs.

HT-29 cells = experiment: Anti-proliferative assay, standard CCK-8 method; type: cell-based, human; conditions: Homo sapiens, mean ± SD of at least three independent experiments, read-out: Proliferative inhibition (IC50, μM) HT-29
From the text: as §1, §2

MCF-7 cells = experiment: Anti-proliferative assay, standard CCK-8 method; type: cell-based, human; conditions: Homo sapiens, MCF7, mean ± SD of at least three independent experiments, read-out: Proliferative inhibition (IC50, μM) MCF-7
From the text: as §1, §2

EGFR = target: T1, EGFR (Homo sapiens, UniProt P00533); experiment: EGFR kinase inhibition, ADP-Glo assay; type: biochemical
T1 construct: 2 μl (50 ng/ml) of EGFR kinase
T1 sequence (P00533 25-1210): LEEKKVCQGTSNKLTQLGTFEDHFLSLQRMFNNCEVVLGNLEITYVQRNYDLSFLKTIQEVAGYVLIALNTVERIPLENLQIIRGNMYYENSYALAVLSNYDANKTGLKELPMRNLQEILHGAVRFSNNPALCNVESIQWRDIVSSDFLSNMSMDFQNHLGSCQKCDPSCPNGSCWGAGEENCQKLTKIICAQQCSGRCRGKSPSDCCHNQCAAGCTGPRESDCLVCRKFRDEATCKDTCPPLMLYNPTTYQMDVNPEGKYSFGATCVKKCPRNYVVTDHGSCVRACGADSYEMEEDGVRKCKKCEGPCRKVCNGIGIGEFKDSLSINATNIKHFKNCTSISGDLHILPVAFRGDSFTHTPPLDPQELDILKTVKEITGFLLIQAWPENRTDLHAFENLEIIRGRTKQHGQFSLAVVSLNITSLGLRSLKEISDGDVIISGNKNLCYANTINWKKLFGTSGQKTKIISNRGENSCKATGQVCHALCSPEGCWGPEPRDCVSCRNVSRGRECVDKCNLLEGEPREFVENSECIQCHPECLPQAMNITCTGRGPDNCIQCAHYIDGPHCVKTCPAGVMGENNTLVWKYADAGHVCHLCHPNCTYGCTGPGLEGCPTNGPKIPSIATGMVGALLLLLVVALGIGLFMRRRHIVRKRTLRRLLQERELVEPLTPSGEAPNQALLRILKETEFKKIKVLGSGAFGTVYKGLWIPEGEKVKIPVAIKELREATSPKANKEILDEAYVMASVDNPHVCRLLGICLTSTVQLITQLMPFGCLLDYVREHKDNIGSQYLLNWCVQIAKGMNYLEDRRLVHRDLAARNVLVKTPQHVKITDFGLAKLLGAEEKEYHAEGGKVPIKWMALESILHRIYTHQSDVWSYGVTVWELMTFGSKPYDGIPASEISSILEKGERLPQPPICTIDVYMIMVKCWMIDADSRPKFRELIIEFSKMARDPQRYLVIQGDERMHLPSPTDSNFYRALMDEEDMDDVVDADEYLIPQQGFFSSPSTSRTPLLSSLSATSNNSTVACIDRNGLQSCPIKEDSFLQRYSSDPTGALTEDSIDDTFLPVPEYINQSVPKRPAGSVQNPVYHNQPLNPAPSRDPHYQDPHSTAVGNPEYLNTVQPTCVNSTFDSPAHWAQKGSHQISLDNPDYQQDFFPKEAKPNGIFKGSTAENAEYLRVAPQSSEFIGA
Protocol: The EGFR kinase inhibition activities of the target compounds were evaluated by the ADP-Glo™ assay. The ADP-Glo™ kinase detection kit is a luminescence kinase detection approach that detects the amount of ADP produced by the kinase reaction. After ADP is converted into ATP, ATP can be used as the substrate of the luciferase-catalyzed reaction to generate an optical signal, which is positively correlated with kinase activity. […] The above-prepared systems were sealed and incubated at room temperature for 2 h, and 5 μl of ADP-GLO was added to terminate the kinase reaction. Then, the culture plate was sealed and incubated in a thermostatic oscillator for 40 min to fully consume the remaining ATP. The luciferase/luciferin reaction was adopted to determine the newly generated ATP level.

Abl = Abl (Homo sapiens, UniProt P00519); experiment: Kinase spectrum assay (ADP-Glo); conditions: remaining enzyme activity at 1 μm compound
Sequence of Abl (P00519 whole entry): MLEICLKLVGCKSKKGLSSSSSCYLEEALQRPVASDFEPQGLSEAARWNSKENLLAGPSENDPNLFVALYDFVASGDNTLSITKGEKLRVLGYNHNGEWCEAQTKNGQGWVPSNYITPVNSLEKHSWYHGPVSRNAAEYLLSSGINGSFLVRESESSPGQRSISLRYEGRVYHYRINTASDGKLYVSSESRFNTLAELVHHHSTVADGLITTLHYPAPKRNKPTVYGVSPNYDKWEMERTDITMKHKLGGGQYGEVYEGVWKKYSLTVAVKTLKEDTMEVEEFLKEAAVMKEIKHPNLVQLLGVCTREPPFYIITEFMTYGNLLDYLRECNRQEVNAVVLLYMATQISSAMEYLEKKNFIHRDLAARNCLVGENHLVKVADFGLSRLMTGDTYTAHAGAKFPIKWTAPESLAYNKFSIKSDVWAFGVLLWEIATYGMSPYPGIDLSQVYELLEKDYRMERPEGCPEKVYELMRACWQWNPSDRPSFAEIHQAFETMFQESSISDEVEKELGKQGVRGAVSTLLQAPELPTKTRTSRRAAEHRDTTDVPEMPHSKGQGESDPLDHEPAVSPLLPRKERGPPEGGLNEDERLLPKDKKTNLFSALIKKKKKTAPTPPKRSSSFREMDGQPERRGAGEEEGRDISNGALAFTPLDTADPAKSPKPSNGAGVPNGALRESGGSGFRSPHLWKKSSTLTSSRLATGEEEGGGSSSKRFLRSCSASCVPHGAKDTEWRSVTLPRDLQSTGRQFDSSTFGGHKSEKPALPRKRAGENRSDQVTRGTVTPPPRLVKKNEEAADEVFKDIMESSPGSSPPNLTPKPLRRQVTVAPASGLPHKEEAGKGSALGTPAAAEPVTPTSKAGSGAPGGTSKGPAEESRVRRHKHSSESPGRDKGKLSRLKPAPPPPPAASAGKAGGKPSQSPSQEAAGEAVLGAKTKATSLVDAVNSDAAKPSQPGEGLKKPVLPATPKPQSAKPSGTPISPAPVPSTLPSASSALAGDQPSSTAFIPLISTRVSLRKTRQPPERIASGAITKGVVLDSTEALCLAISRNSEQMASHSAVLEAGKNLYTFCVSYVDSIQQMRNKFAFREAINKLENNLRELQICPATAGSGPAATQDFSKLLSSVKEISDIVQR

Csk = Csk (Homo sapiens, UniProt P41240); experiment: Kinase spectrum assay (ADP-Glo); conditions: remaining enzyme activity at 1 μm compound
FGFR2 = FGFR2 (Homo sapiens, UniProt P21802); experiment: Kinase spectrum assay (ADP-Glo); conditions: remaining enzyme activity at 1 μm compound
HER4 = HER4 (Homo sapiens, UniProt Q15303); experiment: Kinase spectrum assay (ADP-Glo); conditions: remaining enzyme activity at 1 μm compound
LCK = LCK (Homo sapiens, UniProt P06239); experiment: Kinase spectrum assay (ADP-Glo); conditions: remaining enzyme activity at 1 μm compound
SRC = SRC (Homo sapiens, UniProt P12931); experiment: Kinase spectrum assay (ADP-Glo); conditions: remaining enzyme activity at 1 μm compound
Sequence of SRC (P12931 whole entry): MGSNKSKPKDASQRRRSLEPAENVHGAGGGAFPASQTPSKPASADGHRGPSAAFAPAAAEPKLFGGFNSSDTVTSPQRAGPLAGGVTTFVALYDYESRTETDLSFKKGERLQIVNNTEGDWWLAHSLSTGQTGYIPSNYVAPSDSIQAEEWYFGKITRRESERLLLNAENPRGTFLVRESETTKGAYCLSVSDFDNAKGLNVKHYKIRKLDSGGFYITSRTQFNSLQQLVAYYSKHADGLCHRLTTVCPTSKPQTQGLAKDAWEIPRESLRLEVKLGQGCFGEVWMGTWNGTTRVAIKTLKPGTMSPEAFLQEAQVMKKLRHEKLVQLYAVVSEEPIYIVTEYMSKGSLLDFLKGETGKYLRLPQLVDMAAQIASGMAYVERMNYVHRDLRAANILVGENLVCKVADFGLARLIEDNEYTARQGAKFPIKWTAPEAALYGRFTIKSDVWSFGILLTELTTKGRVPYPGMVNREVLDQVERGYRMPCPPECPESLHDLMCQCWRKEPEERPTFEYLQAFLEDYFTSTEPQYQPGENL

Syk = Syk (Homo sapiens, UniProt P43405); experiment: Kinase spectrum assay (ADP-Glo); conditions: remaining enzyme activity at 1 μm compound
KDR = KDR (Homo sapiens, UniProt P35968); experiment: Kinase spectrum assay (ADP-Glo); conditions: remaining enzyme activity at 1 μm compound
NIK = NIK (Homo sapiens, UniProt Q99558); experiment: Kinase spectrum assay (ADP-Glo); conditions: remaining enzyme activity at 1 μm compound
Sequence of NIK (Q99558 whole entry): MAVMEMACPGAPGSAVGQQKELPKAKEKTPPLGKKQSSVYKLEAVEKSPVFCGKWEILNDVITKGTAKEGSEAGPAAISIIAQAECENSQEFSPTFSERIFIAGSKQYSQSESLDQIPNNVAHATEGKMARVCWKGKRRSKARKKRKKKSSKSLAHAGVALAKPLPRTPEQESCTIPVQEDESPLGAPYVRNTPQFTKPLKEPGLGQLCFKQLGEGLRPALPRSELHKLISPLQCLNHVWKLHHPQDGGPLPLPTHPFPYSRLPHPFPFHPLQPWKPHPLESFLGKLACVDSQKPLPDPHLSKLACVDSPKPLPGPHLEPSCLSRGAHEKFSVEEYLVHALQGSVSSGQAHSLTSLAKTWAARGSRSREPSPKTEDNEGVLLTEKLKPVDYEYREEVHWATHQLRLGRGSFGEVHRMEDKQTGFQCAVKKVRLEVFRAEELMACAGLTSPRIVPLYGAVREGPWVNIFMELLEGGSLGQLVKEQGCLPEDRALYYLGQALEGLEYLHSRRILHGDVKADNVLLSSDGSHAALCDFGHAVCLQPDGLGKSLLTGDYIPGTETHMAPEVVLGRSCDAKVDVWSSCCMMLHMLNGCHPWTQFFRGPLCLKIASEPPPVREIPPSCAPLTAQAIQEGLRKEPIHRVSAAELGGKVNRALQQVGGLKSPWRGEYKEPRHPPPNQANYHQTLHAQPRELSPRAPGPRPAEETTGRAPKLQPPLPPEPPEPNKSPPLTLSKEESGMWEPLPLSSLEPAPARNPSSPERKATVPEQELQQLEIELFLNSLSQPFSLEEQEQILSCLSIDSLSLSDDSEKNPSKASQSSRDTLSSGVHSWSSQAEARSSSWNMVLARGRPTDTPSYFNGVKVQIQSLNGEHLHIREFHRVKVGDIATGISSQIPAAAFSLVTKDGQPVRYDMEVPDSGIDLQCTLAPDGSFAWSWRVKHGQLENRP

ASK1 = ASK1 (Homo sapiens, UniProt Q99683); experiment: Kinase spectrum assay (ADP-Glo); conditions: remaining enzyme activity at 1 μm compound
PKCa = PKCa (Homo sapiens, UniProt P17252); experiment: Kinase spectrum assay (ADP-Glo); conditions: remaining enzyme activity at 1 μm compound
ROCK1 = ROCK1 (Homo sapiens, UniProt Q13464); experiment: Kinase spectrum assay (ADP-Glo); conditions: remaining enzyme activity at 1 μm compound
PKACα = PKACα (Homo sapiens, UniProt P17612); experiment: Kinase spectrum assay (ADP-Glo); conditions: remaining enzyme activity at 1 μm compound
Chk1 = Chk1 (Homo sapiens, UniProt O14757); experiment: Kinase spectrum assay (ADP-Glo); conditions: remaining enzyme activity at 1 μm compound
MAPKAPK2 = MAPKAPK2 (Homo sapiens, UniProt P49137); experiment: Kinase spectrum assay (ADP-Glo); conditions: remaining enzyme activity at 1 μm compound
CAMK2α = CAMK2α (Homo sapiens, UniProt Q9UQM7); experiment: Kinase spectrum assay (ADP-Glo); conditions: remaining enzyme activity at 1 μm compound
Sequence of CAMK2α (Q9UQM7 whole entry): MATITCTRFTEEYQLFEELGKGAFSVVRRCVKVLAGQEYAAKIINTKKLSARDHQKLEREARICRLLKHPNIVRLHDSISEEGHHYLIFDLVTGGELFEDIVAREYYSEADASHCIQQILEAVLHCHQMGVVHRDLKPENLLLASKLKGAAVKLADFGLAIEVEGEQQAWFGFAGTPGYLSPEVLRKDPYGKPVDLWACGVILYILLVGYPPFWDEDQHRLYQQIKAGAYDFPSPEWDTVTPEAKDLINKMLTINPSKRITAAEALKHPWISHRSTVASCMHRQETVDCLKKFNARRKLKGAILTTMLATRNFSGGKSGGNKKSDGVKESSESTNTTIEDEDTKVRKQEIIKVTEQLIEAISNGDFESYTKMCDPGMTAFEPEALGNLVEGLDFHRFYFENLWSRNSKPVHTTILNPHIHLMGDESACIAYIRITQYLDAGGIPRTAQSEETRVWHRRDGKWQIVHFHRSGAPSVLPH

CDK2 = CDK2 (Homo sapiens, UniProt P24941); experiment: Kinase spectrum assay (ADP-Glo); conditions: remaining enzyme activity at 1 μm compound
CLK3 = CLK3 (Homo sapiens, UniProt P49761); experiment: Kinase spectrum assay (ADP-Glo); conditions: remaining enzyme activity at 1 μm compound
Sequence of CLK3 (P49761 whole entry): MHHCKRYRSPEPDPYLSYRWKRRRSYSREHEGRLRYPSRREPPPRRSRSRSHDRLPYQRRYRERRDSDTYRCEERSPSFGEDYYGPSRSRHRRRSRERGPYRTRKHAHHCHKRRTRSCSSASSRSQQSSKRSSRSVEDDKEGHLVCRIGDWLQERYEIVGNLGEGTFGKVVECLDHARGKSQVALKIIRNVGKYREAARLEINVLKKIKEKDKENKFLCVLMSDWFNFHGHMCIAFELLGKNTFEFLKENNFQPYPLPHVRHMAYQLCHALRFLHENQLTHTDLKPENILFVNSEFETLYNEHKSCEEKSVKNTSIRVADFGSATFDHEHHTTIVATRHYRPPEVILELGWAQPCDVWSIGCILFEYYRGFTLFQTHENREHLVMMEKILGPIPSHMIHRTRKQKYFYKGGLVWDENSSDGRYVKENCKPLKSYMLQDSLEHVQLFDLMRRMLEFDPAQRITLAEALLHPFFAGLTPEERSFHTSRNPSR

JNK1 = JNK1 (Homo sapiens, UniProt P45983); experiment: Kinase spectrum assay (ADP-Glo); conditions: remaining enzyme activity at 1 μm compound
GSK3β = GSK3β (Homo sapiens, UniProt P49841); experiment: Kinase spectrum assay (ADP-Glo); conditions: remaining enzyme activity at 1 μm compound
B-raf = B-raf (Homo sapiens, UniProt P15056); experiment: Kinase spectrum assay (ADP-Glo); conditions: remaining enzyme activity at 1 μm compound

IC50 (A549 cells): 2.25 ± 0.08 µM
IC50 (HT-29 cells): 1.72 ± 0.49 µM
IC50 (MCF-7 cells): 2.81 ± 0.09 µM
IC50 (EGFR; ADP-Glo, mean ± SD of at least two independent experiments, read-out: Enzymatic inhibition IC50 (nM) EGFR): 17.3 ± 0.54 nM
Enzyme activity % EGFR (EGFR; remaining enzyme activity at 1 μm compound): 10.52 ± 0.26%
Enzyme activity % Abl (Abl): 94.51 ± 0.41%
Enzyme activity % Csk (Csk): 93.76 ± 4.09%
Enzyme activity % FGFR2 (FGFR2): 91.07 ± 8.02%
Enzyme activity % HER4 (HER4): 76.85 ± 0.33%
Enzyme activity % LCK (LCK): 86.84 ± 6.53%
Enzyme activity % SRC (SRC): 72.10 ± 1.83%
Enzyme activity % Syk (Syk): 101.13 ± 9.99%
Enzyme activity % KDR (KDR): 79.66 ± 2.00%
Enzyme activity % NIK (NIK): 76.97 ± 5.84%
Enzyme activity % ASK1 (ASK1): 62.27 ± 3.02%
Enzyme activity % PKCa (PKCa): 77.27 ± 1.18%
Enzyme activity % ROCK1 (ROCK1): 78.70 ± 4.00%
Enzyme activity % PKACα (PKACα): 86.02 ± 3.75%
Enzyme activity % Chk1 (Chk1): 75.98 ± 6.72%
Enzyme activity % MAPKAPK2 (MAPKAPK2): 86.46 ± 7.38%
Enzyme activity % CAMK2α (CAMK2α): 72.67 ± 2.92%
Enzyme activity % CDK2 (CDK2): 77.40 ± 6.84%
Enzyme activity % CLK3 (CLK3): 86.80 ± 1.90%
Enzyme activity % JNK1 (JNK1): 89.43 ± 2.48%
Enzyme activity % GSK3β (GSK3β): 103.71 ± 1.75%
Enzyme activity % B-raf (B-raf): 96.68 ± 4.29%
SMILES: O=C(Nc1ccc(Cl)c(C(F)(F)F)c1)Nc1ccc2ncnc(Nc3cccc(Br)c3)c2c1 [Compound 7i]
